# Data as given in patent publication US12599672B2, “KRAS proteolysis targeting chimeras” (PAQ Therapeutics Inc., priority 2023, dated 2026).
# Molecular target: T1, KRAS G12V (Homo sapiens, UniProt P01116, G12V)
# T1 construct: SW620-KRAS (G12V)-HiBit-KI cell (Pharmaron); host or cells: SW620-KRAS (G12V)-HiBit-KI cells (HiBiT knock-in at the endogenous KRAS locus)
# Assay: KRAS G12V HiBit assay
# Assay type: cell-based
# Details: SW620-KRAS (G12V)-HiBit-KI cells, compound treatment for 24 hours, class symbols
# Method: Day 1. […] Rinsed cultivated cells in T-75 flasks with 5 mL PBS (Solarbio, P1020-500). […] Inactivated trypsin by adding excessive serum containing medium. Harvested the cells from flask into cell culture medium and counted the cell number.
# Day 2. Test compounds were dissolved at 0.3 mM in DMSO (Solarbio, D8371) as stock solution. […] Performed 3-fold, 10-points dilution via transferring 15 μL compound into 30 μL DMSO by using TECAN liquid handler (TECAN, Freedom EVO200). […] After compound treatment for 24 hours, the plate was removed from incubators and equilibrated at room temperature for 15 minutes. Prepare the HiBit reagent (Promega, N3040) by mixing 10 mL of Nano-Glo®-HiBiT Lytic Buffer with 200 μL of Nano-Glo®-HiBiT Lytic Substrate and 100 μL of LgBiT Protein. Added 20 μL of HiBit reagent into each well of the cell plate and spun the plates at room temperature at 1,000 RPM for 1 minute.
# The degradation activity was calculated using the following formula:
# (§1) [formula] where HC (high control) is obtained from cells treated with 0.1% DMSO only.
# T1 sequence (P01116 1-188 isoform P01116-2 G12V): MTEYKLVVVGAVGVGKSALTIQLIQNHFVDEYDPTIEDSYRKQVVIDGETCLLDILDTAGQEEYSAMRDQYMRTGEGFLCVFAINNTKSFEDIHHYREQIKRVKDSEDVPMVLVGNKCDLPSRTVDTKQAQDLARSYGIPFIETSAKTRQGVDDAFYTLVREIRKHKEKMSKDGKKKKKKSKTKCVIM
row,Compound,DC50
1,"C#Cc1c(F)ccc2cccc(-c3ncc4c(N5CCC[C@@](C)(O)C5)nc(OC[C@@]56CCCN5[C@H](COC(=O)N5CCC(CN7CCC(c8ccc9c(c8)n(C)c(=O)n9C8CCC(=O)NC8=O)CC7)CC5)CC6)nc4c3F)c12 (stereo partly drawn) [Compound 3, [(3S,8S)-8-[[7-(8-Ethynyl-7-fluoro-1-naphthyl)-8-fluoro-4-[(3R)-3-hydroxy-3-methyl-1-piperidyl]pyrido[4,3-d]pyrimidin-2-yl]oxymethyl]-1,2,3,5,6,7-hexahydropyrrolizin-3-yl]methyl 4-[[4-[1-(2,6-dioxo-3-piperidyl)-3-methyl-2-oxo-benzimidazol-5-yl]-1-piperidyl]methyl]piperidine-1-carboxylate]",> 100 nM
2,C#Cc1c(F)ccc2cc(O)cc(-c3ncc4c(N5CCC[C@@](C)(O)C5)nc(OC[C@@]56CCCN5[C@H](COC(=O)N5CCC(N7CCC(c8cccc9c8n(C)c(=O)n9C8CCC(=O)NC8=O)CC7)CC5)CC6)nc4c3F)c12 (some centres unmarked) [Compound 148],> 100 nM

# The next lines start with the values.
row,DC50,Compound
1,> 100 nM,"C[C@H]1CN(CCOCCOCCOCCOc2ccc3c(c2)n(C)c(=O)n3C2CCC(=O)NC2=O)CCCN1c1nccc(-c2noc([C@@]3(C)CCCc4sc(N)c(C#N)c43)n2)n1 (stereo partly drawn) [Compound 200, (4S)-2-amino-4-(3-(2-((2S)-4-(2-(2-(2-(2-((1-(2,6-dioxopiperidin-3-yl)-3-methyl-2-oxo-2,3-dihydro-1H-benzo[d]imidazol-5-yl)oxy)ethoxy)ethoxy)ethoxy)ethyl)-2-methyl-1,4-diazepan-1-yl)pyrimidin-4-yl)-1,2,4-oxadiazol-5-yl)-4-methyl-4,5,6,7-tetrahydrobenzo[b]thiophene-3-carbonitrile]"
2,> 100 nM,"C[C@H]1CN(CCOCCOCCOc2ccc3c(c2)n(C)c(=O)n3C2CCC(=O)NC2=O)CCCN1c1nccc(-c2noc([C@@]3(C)CCCc4sc(N)c(C#N)c43)n2)n1 (stereo partly drawn) [Compound 202, (4S)-2-amino-4-(3-{2-[(2S)-4-{2-[2-(2-{[1-(2,6-dioxopiperidin-3-yl)-3-methyl-2-oxo-1,3-benzodiazol-5-yl]oxy}ethoxy)ethoxy]ethyl}-2-methyl-1,4-diazepan-1-yl]pyrimidin-4-yl}-1,2,4-oxadiazol-5-yl)-4-methyl-6,7-dihydro-5H-1-benzothiophene-3-carbonitrile]"
3,> 100 nM,C[C@H]1CN(CCOCCOc2ccc3c(c2)n(C)c(=O)n3C2CCC(=O)NC2=O)CCCN1c1nccc(-c2noc([C@]3(C)CCCc4sc(N)c(C#N)c43)n2)n1 (some centres unmarked) [Compound 216]
4,> 100 nM,C[C@H]1CN(CCOCCOCCOc2ccc3c(c2)n(C)c(=O)n3C2CCC(=O)NC2=O)CCCN1c1nccc(-c2noc([C@]3(C)CCCc4sc(N)c(C#N)c43)n2)n1 (some centres unmarked) [Compound 217]
5,> 100 nM,C[C@H]1CN(CCOCCOCCOCCOc2cccc3c2n(C)c(=O)n3C2CCC(=O)NC2=O)CCCN1c1nccc(-c2noc([C@@]3(C)CCCc4sc(N)c(C#N)c43)n2)n1 (some centres unmarked) [Compound 219]
6,> 100 nM,C[C@H]1CN(CCOCCOCCOc2cccc3c2n(C)c(=O)n3C2CCC(=O)NC2=O)CCCN1c1nccc(-c2noc([C@@]3(C)CCCc4sc(N)c(C#N)c43)n2)n1 (some centres unmarked) [Compound 220]
7,> 100 nM,C[C@H]1CN(CCOCCOc2cccc3c2n(C)c(=O)n3C2CCC(=O)NC2=O)CCCN1c1nccc(-c2noc([C@@]3(C)CCCc4sc(N)c(C#N)c43)n2)n1 (some centres unmarked) [Compound 221]
8,> 100 nM,"CCc1c(F)ccc2cc(O)cc(-c3ncc4c(N5CCC[C@@](C)(O)C5)nc(OC[C@@]56CCCN5[C@H](COC(=O)N5CCC7(CC5)CC(N5CCC(c8ccc9c(c8)n(C)c(=O)n9C8CCC(=O)N(C)C8=O)CC5)C7)CC6)nc4c3F)c12 (stereo partly drawn) [Compound 491, ((3S,7aS)-7a-(((7-(8-ethyl-7-fluoro-3-hydroxynaphthalen-1-yl)-8-fluoro-4-((R)-3-hydroxy-3-methylpiperidin-1-yl)pyrido[4,3-d]pyrimidin-2-yl)oxy)methyl)hexahydro-1H-pyrrolizin-3-yl)methyl 2-(4-(3-methyl-1-(1-methyl-2,6-dioxopiperidin-3-yl)-2-oxo-2,3-dihydro-1H-benzo[d]imidazol-5-yl)piperidin-1-yl)-7-azaspiro[3.5]nonane-7-carboxylate]"

# Molecular target: T2, KRAS G12D (Homo sapiens, UniProt P01116, G12D)
# T2 construct: AsPc-1-KRAS (G12D)-HiBit-KI cell (Pharmaron); host or cells: AsPc-1-KRAS (G12D)-HiBit-KI cells (HiBiT knock-in at the endogenous KRAS locus)
# Assay: KRAS G12D HiBit assay
# Assay type: cell-based
# Details: AsPc-1-KRAS (G12D)-HiBit-KI cell, compound treatment for 24 hours, absolute DC50; class symbols
# Method: Day 1. […] Allowed cells to reach approximately 80% confluence before splitting. Rinsed cultivated cells in T-75 flasks with 5 mL PBS (Solarbio, P1020-500). […] Inactivated trypsin by adding excessive serum containing medium. Harvested the cells from flask into cell culture medium and counted the cell number.
# Day 2. Test compounds were dissolved at 0.3 mM in DMSO (Solarbio, D8371) as stock solution. […] Performed 3-fold, 10-points dilution via transferring 15 μL compound into 30 μL DMSO by using TECAN liquid handler (TECAN, Freedom EVO200).
# Day 3. After compound treatment for 24 hours, removed the plate from incubators and equilibrated at room temperature for 15 minutes. Prepared the HiBit reagent (Promega, N3040) by mixing 10 mL of Nano-Glo®-HiBiT Lytic Buffer with 200 μL of Nano-Glo®-HiBiT Lytic Substrate and 100 μL of LgBiT Protein. Added 20 μL of HiBit reagent into each well of the cell plate and spun the plates at room temperature at 1,000 RPM for 1 minute.
# The inhibition activity was calculated using the following formula:
# as §1
# T2 sequence (P01116 1-188 isoform P01116-2 G12D): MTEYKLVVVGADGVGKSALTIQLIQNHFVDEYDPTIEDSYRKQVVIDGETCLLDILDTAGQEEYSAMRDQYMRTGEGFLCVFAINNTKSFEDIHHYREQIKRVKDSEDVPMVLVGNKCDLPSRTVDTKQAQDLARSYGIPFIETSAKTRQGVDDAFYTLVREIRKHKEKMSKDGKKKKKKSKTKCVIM
row,DC50,Compound
1,< 100 nM,"C#Cc1c(F)ccc2cccc(-c3ncc4c(N5CCC[C@@](C)(O)C5)nc(OC[C@@]56CCCN5[C@H](COC(=O)N5CCC(CN7CCC(c8ccc9c(c8)n(C)c(=O)n9C8CCC(=O)NC8=O)CC7)CC5)CC6)nc4c3F)c12 (stereo partly drawn) [Compound 3, [(3S,8S)-8-[[7-(8-Ethynyl-7-fluoro-1-naphthyl)-8-fluoro-4-[(3R)-3-hydroxy-3-methyl-1-piperidyl]pyrido[4,3-d]pyrimidin-2-yl]oxymethyl]-1,2,3,5,6,7-hexahydropyrrolizin-3-yl]methyl 4-[[4-[1-(2,6-dioxo-3-piperidyl)-3-methyl-2-oxo-benzimidazol-5-yl]-1-piperidyl]methyl]piperidine-1-carboxylate]"
2,> 300 nM,"CCc1c(F)ccc2cc(O)cc(-c3ncc4c(N5CCC[C@@](C)(O)C5)nc(OC[C@@]56CCCN5[C@H](COC(=O)NCCOCCOc5ccc7c(c5)n(C)c(=O)n7C5CCC(=O)NC5=O)CC6)nc4c3F)c12 (stereo partly drawn) [Compound 112, ((3S,7aS)-7a-(((7-(8-ethyl-7-fluoro-3-hydroxynaphthalen-1-yl)-8-fluoro-4-((R)-3-hydroxy-3-methylpiperidin-1-yl)pyrido[4,3-d]pyrimidin-2-yl)oxy)methyl)hexahydro-1H-pyrrolizin-3-yl)methyl (2-(2-((1-(2,6-dioxopiperidin-3-yl)-3-methyl-2-oxo-2,3-dihydro-1H-benzo[d]imidazol-5-yl)oxy)ethoxy)ethyl) carbamate]"
3,> 300 nM,"CCc1c(F)ccc2cc(O)cc(-c3ncc4c(N5CCC[C@@](C)(O)C5)nc(OC[C@@]56CCCN5[C@H](COC(=O)NCCOCCOCCOc5ccc7c(c5)n(C)c(=O)n7C5CCC(=O)NC5=O)CC6)nc4c3F)c12 (stereo partly drawn) [Compound 113, ((3S,7aS)-7a-(((7-(8-Ethyl-7-fluoro-3-hydroxynaphthalen-1-yl)-8-fluoro-4-((R)-3-hydroxy-3-methylpiperidin-1-yl)pyrido[4,3-d]pyrimidin-2-yl)oxy)methyl)hexahydro-1H-pyrrolizin-3-yl)methyl (2-(2-(2-((1-(2,6-dioxopiperidin-3-yl)-3-methyl-2-oxo-2,3-dihydro-1H-benzo[d]imidazol-5-yl)oxy)ethoxy)ethoxy)ethyl) carbamate]"
4,> 300 nM,"C#Cc1c(F)ccc2cc(O)cc(-c3ncc4c(N5CCC[C@@](C)(O)C5)nc(OC[C@@]56CCCN5[C@H](COC(=O)NCCOCCOc5ccc7c(c5)n(C)c(=O)n7C5CCC(=O)NC5=O)CC6)nc4c3F)c12 (stereo partly drawn) [Compound 114, ((3S,7aS)-7a-(((7-(8-Ethynyl-7-fluoro-3-hydroxynaphthalen-1-yl)-8-fluoro-4-((R)-3-hydro-xy-3-methylpiperidin-1-yl)pyrido[4,3-d]pyrimidin-2-yl)oxy)methyl)hexahydro-1H-pyrrolizin-3-yl)methyl (2-(2-((1-(2,6-dioxopiperidin-3-yl)-3-methyl-2-oxo-2,3-dihydro-1H-benzo[d]imidazol-5-yl)oxy)ethoxy)ethyl) carbamate]"
5,> 300 nM,"C#Cc1c(F)ccc2cc(O)cc(-c3ncc4c(N5CCC[C@@](C)(O)C5)nc(OC[C@@]56CCCN5[C@H](COC(=O)NCCOCCOCCOc5ccc7c(c5)n(C)c(=O)n7C5CCC(=O)NC5=O)CC6)nc4c3F)c12 (stereo partly drawn) [Compound 115, ((3S,7aS)-7a-(((7-(8-ethynyl-7-fluoro-3-hydroxynaphthalen-1-yl)-8-fluoro-4-((R)-3-hydroxy-3-methylpiperidin-1-yl)pyrido[4,3-d]pyrimidin-2-yl)oxy)methyl)hexahydro-1H-pyrrolizin-3-yl)methyl (2-(2-(2-((1-(2,6-dioxopiperidin-3-yl)-3-methyl-2-oxo-2,3-dihydro-1H-benzo[d]imidazol-5-yl)oxy)ethoxy)ethoxy)ethyl) carbamate]"
6,> 300 nM,C#Cc1c(F)ccc2cccc(-c3ncc4c(N5CCC[C@@](C)(O)C5)nc(OC[C@@]56CCCN5[C@H](COC(=O)N5CCC(CN7CCC(c8ccc9c(c8)n(C8CCC(=O)NC8=O)c(=O)n9C)CC7)CC5)CC6)nc4c3F)c12 (some centres unmarked) [Compound 136]

# Same assay, conditions: AsPc-1-KRAS (G12D)-HiBit-KI cell, compound treatment for 24 hours; class symbols
row,Dmax,Compound
1,> 50%,"C#Cc1c(F)ccc2cccc(-c3ncc4c(N5CCC[C@@](C)(O)C5)nc(OC[C@@]56CCCN5[C@H](COC(=O)N5CCC(CN7CCC(c8ccc9c(c8)n(C)c(=O)n9C8CCC(=O)NC8=O)CC7)CC5)CC6)nc4c3F)c12 (stereo partly drawn) [Compound 3, [(3S,8S)-8-[[7-(8-Ethynyl-7-fluoro-1-naphthyl)-8-fluoro-4-[(3R)-3-hydroxy-3-methyl-1-piperidyl]pyrido[4,3-d]pyrimidin-2-yl]oxymethyl]-1,2,3,5,6,7-hexahydropyrrolizin-3-yl]methyl 4-[[4-[1-(2,6-dioxo-3-piperidyl)-3-methyl-2-oxo-benzimidazol-5-yl]-1-piperidyl]methyl]piperidine-1-carboxylate]"
